ChEMBL document CHEMBL2073953, “The anthelminthic agent albendazole does not interact with p-glycoprotein” (Drug Metab Dispos, 2002)

How the values were obtained:
[1] = target: T1, ATP-dependent translocase ABCB1 (Homo sapiens, UniProt P08183); assay: TP_TRANSPORTER: inhibition of Digoxin transepithelial transport (basal to apical) (Digoxin: 5 uM, Albendazole: 100 uM) in MDR1-expressing LLC-PK1 cells; assay type: functional, cell-based; settings: pig, llc-pk1, 100 µM
[2] = target: T1, ATP-dependent translocase ABCB1; assay: TP_TRANSPORTER: transepithelial transport (basal to apical) in MDR1-expressing LLC-PK1 cells; assay type: functional, cell-based; settings: pig
[3] = target: P-glycoprotein 1 and 3 (MDR1a/MDR1b) (Mus musculus, UniProt P21447+P06795); assay: TP_TRANSPORTER: tissue distribution in mdr1a/1b(-/-) mouse; assay type: functional, organism-based; settings: in vivo

T1 sequence (P08183 whole entry): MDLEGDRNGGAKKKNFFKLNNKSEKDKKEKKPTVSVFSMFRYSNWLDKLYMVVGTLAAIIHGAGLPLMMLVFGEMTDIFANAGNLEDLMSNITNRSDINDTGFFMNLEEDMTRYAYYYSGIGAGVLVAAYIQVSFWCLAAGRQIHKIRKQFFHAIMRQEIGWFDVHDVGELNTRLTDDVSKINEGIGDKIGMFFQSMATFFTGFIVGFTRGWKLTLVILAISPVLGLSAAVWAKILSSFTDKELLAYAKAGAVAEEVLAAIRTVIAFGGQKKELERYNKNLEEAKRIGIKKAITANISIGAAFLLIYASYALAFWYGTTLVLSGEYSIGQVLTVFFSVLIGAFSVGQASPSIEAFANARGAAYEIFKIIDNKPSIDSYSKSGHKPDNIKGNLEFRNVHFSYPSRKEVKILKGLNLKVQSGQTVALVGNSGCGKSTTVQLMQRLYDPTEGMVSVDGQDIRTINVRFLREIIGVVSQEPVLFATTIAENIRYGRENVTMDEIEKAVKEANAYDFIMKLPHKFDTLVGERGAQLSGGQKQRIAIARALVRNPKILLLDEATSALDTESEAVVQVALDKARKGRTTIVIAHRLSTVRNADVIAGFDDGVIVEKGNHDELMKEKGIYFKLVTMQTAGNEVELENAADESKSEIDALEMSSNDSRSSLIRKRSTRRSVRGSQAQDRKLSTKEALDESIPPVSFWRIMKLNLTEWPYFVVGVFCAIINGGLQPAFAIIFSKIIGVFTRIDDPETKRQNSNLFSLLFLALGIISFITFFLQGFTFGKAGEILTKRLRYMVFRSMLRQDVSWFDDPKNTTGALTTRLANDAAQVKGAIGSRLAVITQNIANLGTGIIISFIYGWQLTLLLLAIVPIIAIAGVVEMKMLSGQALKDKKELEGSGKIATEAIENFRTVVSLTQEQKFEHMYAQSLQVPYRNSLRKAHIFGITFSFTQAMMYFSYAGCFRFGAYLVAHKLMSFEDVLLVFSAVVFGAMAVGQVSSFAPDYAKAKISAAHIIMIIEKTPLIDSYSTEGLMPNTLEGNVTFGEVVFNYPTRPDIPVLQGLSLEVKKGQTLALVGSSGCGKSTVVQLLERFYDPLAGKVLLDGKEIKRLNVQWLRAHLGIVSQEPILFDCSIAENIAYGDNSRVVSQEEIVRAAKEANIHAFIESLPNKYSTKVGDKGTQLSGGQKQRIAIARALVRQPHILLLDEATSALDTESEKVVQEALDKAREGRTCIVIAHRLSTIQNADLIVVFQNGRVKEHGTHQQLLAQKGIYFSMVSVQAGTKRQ

CCCSc1ccc2nc(NC(=O)OC)[nH]c2c1 [ALBENDAZOLE] was tested, and the Activity [1] was “is not an inhibitor [-]”, the Activity [2] was “is not a substrate [-]” and the Activity [3] was “is not a substrate [-]”.
